The values that follow come from patent publication EP0934746B1, “SUBSTANCE IN THE FORM OF AN AQUEOUS EXTRACT OF VEGETAL RAW MATERIAL FOR TREATING ONCOLOGICAL DISEASES, AND METHOD FOR PRODUCING THE SAME” (Gosudarstvenny Nauchny Tsentr Rossiiskoi Federatsii …, priority 1996, dated 1998).

The subject of assay [1] is lipid peroxidation processes (LPP) in murine liver homogenate. The assay is described as follows: Antioxidant activity: inhibition of lipid peroxidation processes (LPP) in liver homogenate, thiobarbituric acid colour reaction. Type of assay: biochemical, BDF-1 (nondescript) mice. The conditions noted are these: conventional unit = quantity required for 50% inhibition of LPP; 3 h at 37°C. The protocol: The antioxidant activity of the extracts was determined from the ability of a sample to inhibit the lipid peroxidation processes (LPP) in murine liver homogenate.
The antioxidant activity was used by using a method based on the ability of the sample being investigated to inhibit LPP processes in murine liver homogenate. The liver of BDF-1 (nondescript) mice was homogenized in a glass homogenizer and then centrifugated. The liver homogenate was introduced in an amount of 5-6 mg of protein per assay. The volume of the assay was brought to 0.5 ml with a solution of the sample being tested for the antioxidant activity. The assays were incubated for 3 h at 37°C.
The concentration of the LPP products was determined from the color reaction with thiobarbituric acid. The quantity of the antioxidant required for the 50% inhibition of LPP was adopted as a conventional unit of the sample under investigation.

The subject of assay [2] is Lymphoid leukemia L1210. Kind of assay: Influence of extract samples on curative effect of DDP in L1210 leukemia (TGI, LI). In kind it is in vivo, mice BDF1. The conditions noted are these: for TGI, % days 4: day 4; for TGI, % days 6: day 6; for TGI, % days 8: day 8; for LI, %: lifetime increase. The protocol:
In addition, the effect of the extracts on the therapeutic activity of the cytostatic cis-dichlorodiamine platinum (DDP) was estimated.
Lymphoid leukemia L1210 was inoculated to BDF1 males in a sterile physiologic salt solution, 3x10^6 cells in 0.2 ml volume. The day of the inoculation was regarded as the zero day of tumor growth. The extract samples and DDP were administered in the doses and under the conditions specified in Tables 4, 5.
Treatment of the animals was started 24 hours after the tumor inoculation, control animals were administered a physiologic salt solution instead of the vegetable extracts. The antitumoric effect was estimated from the tumor growth inhibition (TGI) calculated from theformula: TGI = [(Vcontrol - Vexperiment)/Vcontrol]x100%; [formula] mean lifetime (ML), lifetime increase (LI) calculated from the formula: LI = [(MLexperiment - MLcontrol)/Mlcontrol]x100%. [formula] TGI > 50%, LI > 50% were considered to be biologically significant effects.
The obtained data were processed in accordance with the Fisher-Student procedure, using statistical programs. The differences were regarded confident at p < 0.05.

Assay [3] deals with cell culture of human pulmonary adenocarcinoma A-549. Kind of assay: Cytotoxic activity in vitro: inhibition of proliferation of A-549 cell culture, colorimetric. In kind it is cell-based. The protocol: The cytotoxic activity of the extracts in vitro was determined with the help of a biological test based on inhibition of the proliferation of the inoculated cell culture of human pulmonary adenocarcinoma A-549 [7].
When carrying out the cytotoxic biological test in vitro, each well of a flat-bottomed 96-well microtiter (Sarstedt, USA) was charged with 10 µl of a suspension of A549-line cells in a concentration of 1x10^5 cell/ml; 24 h later series dilutions of the vegetable preparations in the range of 1:4-1:64 were added, this corresponding to 3.0-0.1 mg/ml in the volume of 100 µl/well. The cytotoxic activity of the extracts and DDP was estimated colorimetrically. The results were expressed in the percentage of inhibition of the A-549 test-culture proliferation. The cytotoxic activity of the sample was adopted to be the maximum titer of the sample, at which the biologically significant (50%) level of inhibition of the A-549 test-culture proliferation was observed.

On to `O=C1O[C@H]([C@@H](O)CO)C(O)=C1O` [Ascorbic acid (vitamin C), Ascorbic acid], for which the “Antioxidant activity, conv. units (1/mg)” value in assay [1] is 12 conv. units (1/mg).
On to `N.N.[Cl][Pt][Cl]` [DDP, cis-dichlorodiamine platinum], for which, in assay [2] (DDP alone 9 mg/kg), the “TGI, % days 4” value stood at 100%; the “TGI, % days 6” value amounted to 93%; the “TGI, % days 8” value is on record as 33%; the “LI, %” value came to 41%. For the same compound, in assay [2] (DDP alone 10 mg/kg), the “TGI, % days 4” value stood at 100%; the “TGI, % days 6” value was determined as 87%; the “TGI, % days 8” value amounted to 65%; the “LI, %” value turned out to be 32%. In addition, the “Inhibition, %” value in assay [3] (A-549 proliferation, at the titer/concentration in the column beside it) came to 68%. The “Maximum titer (as concentration)” value in assay [3] (DDP control) stood at 10 µg/mL. In addition, the “ability to inhibit proliferation of the cell culture A-549” value in assay [3] (at the concentration of 0.01 mg/ml) was found to be 68%.
Take `CC1=C(/C=C/C(C)=C/C=C/C(C)=C/C=C/C=C(C)/C=C/C=C(C)/C=C/C2=C(C)CCCC2(C)C)C(C)(C)CCC1` [β-Carotene]: the “Antioxidant activity, conv. units (1/mg)” value in assay [1] is given as 6 conv. units (1/mg).
For the compound “Retinol acetate [Retinol acetate (vitamin A)]”, the “Antioxidant activity, conv. units (1/mg)” value in assay [1] is on record as 83 conv. units (1/mg).
